The assay addresses Trypanosoma cruzi. Type of assay: organism-based, CL Brener. Particulars: sf9.

pKi: −log10 of the molar value.

For `O=S(=O)(O)OS(=O)(=O)O` [SODIUM PYROSULFATE], the pKi (as a rule, −log10 of the Ki, conventionally taken in molar units) is 3.12. Molecule `O=[Te](=O)(O)O` [SODIUM TELLURATE] had a pKi of 3.15.

In turn, `NS(N)(=O)=O` [SULFAMIDE] showed a negative logarithm of the Ki (pKi) of 3.92. As for `O=S(=O)([O-])[O-].[Na+].[Na+]` [SODIUM SULFATE ANHYDROUS], the pKi was 2.16. To `[N-]=[N+]=[N-]` [SODIUM AZIDE] belongs 2.95; to `[I-].[Na+]` [SODIUM IODIDE], 4.36; to `[Br-].[Na+]` [SODIUM BROMIDE], 3.14.

As for `O=[N+]([O-])[O-].[Na+]` [SODIUM NITRATE], the pKi was 3.11. To `O=NO` [SODIUM NITRITE] belongs 3.15. To `[Cl-].[Na+]` [SODIUM CHLORIDE] belongs 3.09.

`O=S([O-])O.[Na+]` [SODIUM BISULFITE] gave a pKi of 3.04. The figure for `N#CO` [SODIUM CYANATE] is 4.10; for `CCN(CC)C(=S)S` [DITIOCARB SODIUM] it is 5.30; for `N#C[SeH]` [SODIUM SELENOCYANATE] it is 3.11. The figure for `O=S(=O)(O)ONOS(=O)(=O)O` [SODIUM IMINODISULFATE] is 2.15. To `S` [SODIUM HYDROSULFIDE] belongs 4.11. `[O-][Cl+3]([O-])([O-])O` [SODIUM PERCHLORATE]: the pKi is < 1.00.

For `O=C([O-])O.[Na+]` [SODIUM BICARBONATE], the pKi was 3.24. Molecule `O=S(=O)(O)OOS(=O)(=O)O` [SODIUM PERSULFATE] had a pKi of 3.08. The pKi values of the last two molecules are within 0.2 log units of each other. The figure for `NS(=O)(=O)O` [SULFAMATE] is 1.97; for `F[B-](F)(F)F.[Na+]` [SODIUM TETRAFLUOROBORATE] it is < 1.00; for `[F-].[Na+]` [SODIUM FLUORIDE] it is 3.05. For `O=[Se](=O)(O)O` [SODIUM SELENATE], the pKi was 3.18. This pKi and that of the molecule before are within 0.2 log units of each other. `OB(O)c1ccccc1` [PHENYLBORONIC ACID] had a pKi of 3.07. On to `O=[As](O)(O)c1ccccc1` [PHENYLARSONIC ACID], for which the negative logarithm of the Ki (pKi) is 3.21. To `O=C([O-])[O-].[Na+].[Na+]` [SODIUM CARBONATE] belongs 3.16. To `O=BOB(O)OB(O)OB=O` [SODIUM TETRABORATE] belongs 1.61.

The record behind these values is ChEMBL document CHEMBL2413077, “Anion inhibition studies of the α-carbonic anhydrase from the protozoan pathogen Trypanosoma cruzi, the causative agent of Chagas disease” (Bioorg Med Chem, 2013).
